# Source: US20090215895A1, “Therapeutic and carrier molecules” (PEPLIN BIOLIPIDS PTY LTD, priority 2004, published 2009)
# Tests used:
# PKC isozyme β1 = biological target: T1, PKC isozyme β1 (Homo sapiens, UniProt P05771); experiment: PMA-induced PKC translocation in HL-60 cells (Western blot); assay type: cell-based; set-up: key: +++: strong inhibition of PKC activation; −: no inhibition of PKC activation; conditions: 20 μM, 60 min
# T1 construct: endogenous in cells; host or cells: HL-60
# Procedure: (§1) The effects of nitroanalogs of PUFAs on PKC activation were determined. Lx compounds at a concentration of 20 μM were incubated with the HL-60 cell line (final condition 10^6 cells/ml) for 60 min. PKC activation was then attempted to be induced by PMA. PKC enzyme translocation was quantitated by Western blot.
# PKC isozyme δ = biological target: T2, PKC isozyme δ (Homo sapiens, UniProt Q05655); experiment: as above; assay type: cell-based; set-up: key: +++: strong inhibition of PKC activation; −: no inhibition of PKC activation; conditions: 20 μM, 60 min
# T2 construct: endogenous in cells; host or cells: HL-60
# T2 sequence (Q05655 whole entry): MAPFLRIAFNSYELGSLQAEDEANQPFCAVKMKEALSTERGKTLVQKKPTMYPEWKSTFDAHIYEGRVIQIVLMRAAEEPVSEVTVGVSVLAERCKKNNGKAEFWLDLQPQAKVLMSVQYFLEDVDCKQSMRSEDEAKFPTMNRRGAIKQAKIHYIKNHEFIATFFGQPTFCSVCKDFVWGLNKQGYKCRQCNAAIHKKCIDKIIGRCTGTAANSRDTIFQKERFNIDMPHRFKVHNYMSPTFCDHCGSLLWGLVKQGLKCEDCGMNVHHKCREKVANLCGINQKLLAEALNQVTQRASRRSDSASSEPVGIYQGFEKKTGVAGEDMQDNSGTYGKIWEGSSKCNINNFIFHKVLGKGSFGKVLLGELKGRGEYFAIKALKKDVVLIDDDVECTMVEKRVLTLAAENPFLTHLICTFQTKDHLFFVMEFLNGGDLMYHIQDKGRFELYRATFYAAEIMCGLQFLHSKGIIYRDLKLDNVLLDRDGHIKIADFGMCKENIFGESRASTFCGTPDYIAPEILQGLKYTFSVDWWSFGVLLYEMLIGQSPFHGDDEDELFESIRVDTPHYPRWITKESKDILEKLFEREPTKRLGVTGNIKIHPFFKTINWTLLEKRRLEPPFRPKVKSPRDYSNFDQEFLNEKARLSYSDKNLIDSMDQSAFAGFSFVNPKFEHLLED
# Procedure: as §1
# PKC isozyme β2 = biological target: T3, PKC isozyme β2 (Homo sapiens, UniProt P05771); experiment: as above; assay type: cell-based; set-up: key: +++: strong inhibition of PKC activation; −: no inhibition of PKC activation; conditions: 20 μM, 60 min
# T3 construct: endogenous in cells; host or cells: HL-60
# T3 sequence (P05771 1-673 isoform P05771-2): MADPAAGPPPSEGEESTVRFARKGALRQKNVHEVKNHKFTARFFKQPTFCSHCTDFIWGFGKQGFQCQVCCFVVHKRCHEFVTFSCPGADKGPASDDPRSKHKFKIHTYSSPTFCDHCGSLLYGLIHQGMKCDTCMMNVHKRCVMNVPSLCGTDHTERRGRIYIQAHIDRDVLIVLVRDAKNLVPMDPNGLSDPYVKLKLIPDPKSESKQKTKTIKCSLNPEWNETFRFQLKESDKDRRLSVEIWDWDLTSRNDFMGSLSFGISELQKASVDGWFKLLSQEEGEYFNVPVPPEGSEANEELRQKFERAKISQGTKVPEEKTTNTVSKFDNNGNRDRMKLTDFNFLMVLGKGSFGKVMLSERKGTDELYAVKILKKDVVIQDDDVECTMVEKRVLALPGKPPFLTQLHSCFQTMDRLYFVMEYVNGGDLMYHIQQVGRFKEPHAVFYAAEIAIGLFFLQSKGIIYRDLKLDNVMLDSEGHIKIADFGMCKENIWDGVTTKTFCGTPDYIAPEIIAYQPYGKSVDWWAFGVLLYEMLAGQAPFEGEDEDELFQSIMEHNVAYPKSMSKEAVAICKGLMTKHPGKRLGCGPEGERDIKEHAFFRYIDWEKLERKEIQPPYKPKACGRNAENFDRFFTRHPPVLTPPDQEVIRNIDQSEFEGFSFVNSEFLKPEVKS
# Procedure: as §1
# PKC isozyme ε = biological target: T4, PKC isozyme ε (Homo sapiens, UniProt Q02156); experiment: as above; assay type: cell-based; set-up: key: +++: strong inhibition of PKC activation; −: no inhibition of PKC activation; conditions: 20 μM, 60 min
# T4 construct: endogenous in cells; host or cells: HL-60
# T4 sequence (Q02156 1-737): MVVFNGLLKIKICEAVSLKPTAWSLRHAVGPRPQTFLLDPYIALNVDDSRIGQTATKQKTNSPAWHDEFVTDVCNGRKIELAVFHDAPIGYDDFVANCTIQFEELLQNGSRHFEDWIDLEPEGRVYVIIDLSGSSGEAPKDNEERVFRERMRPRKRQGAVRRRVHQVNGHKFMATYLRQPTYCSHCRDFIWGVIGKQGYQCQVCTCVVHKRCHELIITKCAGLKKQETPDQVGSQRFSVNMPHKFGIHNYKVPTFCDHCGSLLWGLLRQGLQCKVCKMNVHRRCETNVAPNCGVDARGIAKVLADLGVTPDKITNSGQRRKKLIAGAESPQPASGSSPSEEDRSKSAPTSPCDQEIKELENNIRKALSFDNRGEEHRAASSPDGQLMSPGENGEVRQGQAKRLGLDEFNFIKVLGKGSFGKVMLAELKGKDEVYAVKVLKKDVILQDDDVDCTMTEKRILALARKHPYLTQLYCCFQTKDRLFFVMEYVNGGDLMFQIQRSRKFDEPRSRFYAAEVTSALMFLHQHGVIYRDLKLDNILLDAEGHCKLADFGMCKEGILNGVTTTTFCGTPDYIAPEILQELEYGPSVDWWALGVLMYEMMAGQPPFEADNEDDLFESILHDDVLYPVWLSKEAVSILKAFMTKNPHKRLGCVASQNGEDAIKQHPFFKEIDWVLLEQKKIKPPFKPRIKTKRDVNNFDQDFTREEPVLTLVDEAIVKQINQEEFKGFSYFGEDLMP
# Procedure: as §1
# PKC isozyme α = biological target: T5, PKC isozyme α (Homo sapiens, UniProt P17252); experiment: as above; assay type: cell-based; set-up: key: +++: strong inhibition of PKC activation; −: no inhibition of PKC activation; conditions: 20 μM, 60 min
# T5 construct: endogenous in cells; host or cells: HL-60
# Procedure: as §1
# [1] = Formalin-induced pain test (hind paw licking time); assay type: in vivo; conditions: 30 min prior to formalin, mean of 5 animals
# Procedure: Investigations of the effects of PT2 on pain induced by phenylquinolic acid (PQ writhing) and formalin have been made. In both the PQ writhing test (FIG. 3) and the formalin algesia test (FIG. 4), PT2 administered by intraperitoneal inoculation reduced pain and compared favourably with pain reduction by aspirin (oral, 100 mg/kg). In these tests, the EPUFA was administered 30 min before the pain stimulus and effects recorded over the following 20 min.
# Investigations of PT2 in the formalin-induced analgesia model looking specifically at the biphasic response have also been undertaken and are shown in Table 1. It is well documented that in this model, aspirin suppresses only pain related to the inflammatory process (15-20 mins post-administration of formalin), while morphine suppresses pain in both phases of the response (0-5 min and 15-20 min).
# Compounds were administered intraperationedly (ip) 30 min prior to the administration of formalin (0.02 ml, 1% solution) via subplantar injection into the right hind paw. Reduction of the induced hind paw licking time recorded during the following 0-5 min period (Phase I response) or 15-20 min period (Phase II response) was determined. The data in Table 1 are the mean responses of 5 animals in each group.
# E-selectin = experiment: Effect of lipoxygenase/cyclooxygenase inhibitors and antioxidants on suppression of E-selectin expression by β-oxa-23:4n-6; assay type: cell-based, human; conditions: HUVEC pre-treated 15 min with inhibitor, then 20 μmol/l β-oxa-23:4n-6 60 min, TNF-α 4 h
# Procedure: FIG. 16 is a representation showing the effects of lipoxygenase/cyclooxygenase inhibitors and antioxidants on the modulation of E-selectin expression on HUVEC by β-oxa-23:4n-6. HUVEC were pre-treated with NDGA, baicalein, MK886, indomethacin, Vitamin E, or diluent (control) for 15 min. The cells were then further incubated with 20 μmol/l β-oxa-23:4n-6 or diluent (control) for 60 min followed by TNF-α (125 U/200 μl medium) for 4 hr and the expression of E-selectin adhesion molecule was determined. The results are expressed as % inhibition of the suppressive effect of β-oxa-23:4n-6 and represent the mean±SEM of three separate experiments each performed in quadruplicate. * p<0.01, for significant differences between pre-treatment with inhibitor and corresponding control (one-way analysis of variance followed by the Dunnett test for multiple comparisons).
# Confluent second-passage HUVEC in 96-well tissue culture plates were pre-treated with 10 μmol/l NDGA (non-selective lipoxygenase inhibitor); 10 μmol/l baicalein (a specific 12-lipoxygenase inhibitor); 500 nM MK886 (an inhibitor of the 5-lipoxygenase activating protein), […] indomethacin (a cyclooxygenase inhibitor); 10 μmol/l Vitamin E (an antioxidant); or diluent (control) for 15 min. The cells were then further incubated with 20 μmol/l β-oxa-23:4n-6 or diluent (control) for 60 min followed by TNF-α (125 U) for 4 h. The expression of E-selectin adhesion molecule was determined by ELISA. While none of the inhibitors/antioxidants affected the ability of TNF to enhance E-selectin expression on HUVEC, the ability of β-oxa 23:4n-6 to suppress the action of TNF was reduced when the cells were pre-treated with either NDGA or baicalein but not with indomethacin, Vitamin E or MK886 (FIG. 16).
# HUVEC = experiment: Agonist-enhanced neutrophil adherence to HUVEC; assay type: cell-based, human; conditions: 20 μmol/l, 1 hr pre-treatment, TNF 4 hr
# Procedure: FIG. 11 is a representation showing effect of β-oxa; β-thia and natural PUFA on TNF-enhanced neutrophil adherence to HUVEC. HUVEC were pre-treated with the fatty acids (20 μmol/l) for 60 min at 37° C. before being stimulated with TNF (125 U/200 μl medium) for 4 hr at 37° C. The cells were then co-incubated with neutrophils (5×10^5 cells/well) at 37° C. for 30 min and the degree of neutrophil adherence quantitated. The results are expressed as % of control and represent the mean±SEM of three separate experiments each performed in triplicate. * p<0.05, ***p<0.001, for significant differences between pre-treatment with fatty acid and control (one-way analysis of variance followed by the Dunnett test for multiple comparisons).
# Adhesion of neutrophils, prepared by the rapid-single-step method (Ferrante et al, J. Immun. Methods 36:109-117, 1980), to HUVEC isolated from umbilical cords was carried out essentially as described (Huang et al, 1997 supra).
# The magnitude of the suppressive effect of -MP3 was dependent on-pre-treatment time and concentration with significant effects observed with a pre-treatment time of 1 hr and a concentration of ≧5 μmol/l.
# T1 sequence (P05771 whole entry): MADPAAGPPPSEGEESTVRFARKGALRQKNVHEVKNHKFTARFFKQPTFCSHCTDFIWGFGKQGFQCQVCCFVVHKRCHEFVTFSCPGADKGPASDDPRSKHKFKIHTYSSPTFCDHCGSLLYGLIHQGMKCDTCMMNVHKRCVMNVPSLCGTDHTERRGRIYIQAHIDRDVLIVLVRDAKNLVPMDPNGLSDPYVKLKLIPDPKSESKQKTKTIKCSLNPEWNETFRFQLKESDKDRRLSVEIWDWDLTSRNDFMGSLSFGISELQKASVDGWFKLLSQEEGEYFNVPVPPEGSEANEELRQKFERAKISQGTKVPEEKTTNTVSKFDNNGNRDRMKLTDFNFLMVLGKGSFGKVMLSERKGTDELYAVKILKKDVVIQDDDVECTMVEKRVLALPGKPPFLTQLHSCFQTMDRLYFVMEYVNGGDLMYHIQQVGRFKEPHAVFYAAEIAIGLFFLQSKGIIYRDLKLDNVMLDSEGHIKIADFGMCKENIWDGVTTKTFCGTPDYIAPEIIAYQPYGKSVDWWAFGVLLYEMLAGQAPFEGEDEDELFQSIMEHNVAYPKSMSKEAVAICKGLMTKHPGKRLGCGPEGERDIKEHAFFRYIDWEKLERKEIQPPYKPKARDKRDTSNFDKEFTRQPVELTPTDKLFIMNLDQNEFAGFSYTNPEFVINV
compound,measurement,setting,value
CCCCC/C=C\C/C=C\C/C=C\C/C=C\CCCC[N+](=O)[O-] [Lx4],"Inhibition of PKC activation, isozyme β1",PKC isozyme β1,+++
same,"Inhibition of PKC activation, isozyme δ",PKC isozyme δ,+++
same,"Inhibition of PKC activation, isozyme β2",PKC isozyme β2,+++
same,"Inhibition of PKC activation, isozyme ε",PKC isozyme ε,−
CC/C=C\C/C=C\C/C=C\CCCCCCCC[N+](=O)[O-] [Lx2],"Inhibition of PKC activation, isozyme β1",PKC isozyme β1,−
same,"Inhibition of PKC activation, isozyme α",PKC isozyme α,−
same,"Inhibition of PKC activation, isozyme δ",PKC isozyme δ,−
same,"Inhibition of PKC activation, isozyme β2",PKC isozyme β2,+++
same,"Inhibition of PKC activation, isozyme ε",PKC isozyme ε,−
"CN1CC[C@]23c4c5ccc(O)c4O[C@H]2[C@@H](O)C=C[C@H]3[C@H]1C5 [Morphine, reference compound]","% inhibition of pain response, Phase I (0-5 mins)",[1]; 10 mg/kg ip,85%
same,"% inhibition of pain response, Phase II (15-20 mins)",[1]; 10 mg/kg ip,100%
Vitamin E,Effect on ability of β-oxa 23:4n-6 to suppress TNF-induced E-selectin expression,E-selectin,not
CC/C=C\C/C=C\C/C=C\C/C=C\C/C=C\C/C=C\CCC[N+](=O)[O-] [Lx5],"Inhibition of PKC activation, isozyme β1",PKC isozyme β1,−
same,"Inhibition of PKC activation, isozyme α",PKC isozyme α,−
same,"Inhibition of PKC activation, isozyme δ",PKC isozyme δ,−
same,"Inhibition of PKC activation, isozyme β2",PKC isozyme β2,−
CC(C)c1ccc2c(c1)c(SC(C)(C)C)c(CC(C)(C)C(=O)O)n2Cc1ccc(Cl)cc1 [MK886],Effect on ability of β-oxa 23:4n-6 to suppress TNF-induced E-selectin expression,E-selectin,not
O=c1cc(-c2ccccc2)oc2cc(O)c(O)c(O)c12 [baicalein],Effect on ability of β-oxa 23:4n-6 to suppress TNF-induced E-selectin expression,E-selectin,reduced
"CC(Cc1ccc(O)c(O)c1)C(C)Cc1ccc(O)c(O)c1 (stereo not shown) [NDGA, nordihydroguairetic acid]",Effect on ability of β-oxa 23:4n-6 to suppress TNF-induced E-selectin expression,E-selectin,reduced
CCCCC/C=C\C/C=C\C/C=C\CCCCCSCC(=O)O [β-thia-21:3n-6],Inhibition of TNF-α-enhanced neutrophil adhesion to HUVEC,HUVEC,inhibited their ability to be stimulated
CCCCCCCCCCCCCCCCCC[N+](=O)[O-] [Lx1],"Inhibition of PKC activation, isozyme α",PKC isozyme α,−
same,"Inhibition of PKC activation, isozyme δ",PKC isozyme δ,−
same,"Inhibition of PKC activation, isozyme β2",PKC isozyme β2,−
same,"Inhibition of PKC activation, isozyme ε",PKC isozyme ε,−
CCCCC/C=C\C/C=C\C/C=C\CCCCCOCC(=O)O [β-oxa-21:3n-6],Inhibition of TNF-α-enhanced neutrophil adhesion to HUVEC,HUVEC,inhibited their ability to be stimulated
"CC(=O)Oc1ccccc1C(=O)O [Aspirin, reference compound]","% inhibition of pain response, Phase I (0-5 mins)",[1]; 300 mg/kg ip,30%
same,"% inhibition of pain response, Phase II (15-20 mins)",[1]; 300 mg/kg ip,91%
"CCCCC/C=C\C/C=C\CCCCCCCC(=O)O [18:2n-6, octadecadienoic acid, reference compound]",Inhibition of TNF-α-enhanced neutrophil adhesion to HUVEC,HUVEC,no significant effect
COc1ccc2c(c1)c(CC(=O)O)c(C)n2C(=O)c1ccc(Cl)cc1 [indomethacin],Effect on ability of β-oxa 23:4n-6 to suppress TNF-induced E-selectin expression,E-selectin,not
CC/C=C\C/C=C\C/C=C\CCCCCCCCSCC(=O)O [β-thia-21:3n-3],Inhibition of TNF-α-enhanced neutrophil adhesion to HUVEC,HUVEC,inhibited their ability to be stimulated
CCCCC/C=C\C/C=C\C/C=C\C/C=C\CCCCSCC(=O)O [β-thia-23:4n-6],Inhibition of TNF-α-enhanced neutrophil adhesion to HUVEC,HUVEC,inhibited their ability to be stimulated
same,Inhibition of TNF-α-enhanced neutrophil adhesion to HUVEC,HUVEC; listed as β-thia 23:4n-6,less active than this β-oxa compound
CCCCC/C=C\C/C=C\C/C=C\CCCCC[N+](=O)[O-] [Lx3],"Inhibition of PKC activation, isozyme β1",PKC isozyme β1,−
same,"Inhibition of PKC activation, isozyme α",PKC isozyme α,−
same,"Inhibition of PKC activation, isozyme δ",PKC isozyme δ,−
same,"Inhibition of PKC activation, isozyme β2",PKC isozyme β2,+++
same,"Inhibition of PKC activation, isozyme ε",PKC isozyme ε,−
